From patent publication US20260365670A1, “EGFR INHIBITORS AND USES THEREOF” (DIZAL (JIANGSU) PHARMACEUTICAL CO., LTD., priority 2022, published 2026)
Read-outs that look alike come from different tables or passages of the source.

Tests used:
EGFR wild type = target: T1, EGFR wild type (Homo sapiens, UniProt P00533); assay: Inhibition of EGFR wild type biochemical enzymatic activity (HTRF); details: EGFR WT, 1 mM ATP, 1 h, room temperature, read-out: IC50 (nM) @WT
T1 construct: purchased Carna Bio
In short: (§1)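 Read-out is the HTRF 665/615 nm ratio (excitation 320 nm), taken as proportional to kinase activity after a 1 h room-temperature reaction with 1 mM ATP and 1 μM biotinylated TK substrate. IC50 values derive from four-parameter logistic fitting.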

EGFR L858R = target: T2, EGFR L858R (Homo sapiens, UniProt P00533, L858R); assay: Inhibition of EGFR L858R biochemical enzymatic activity (HTRF); details: 1 mM ATP
T2 construct: purchased Carna Bio
In short: as §1

EGFR L858R/T790M = target: T3, EGFR L858R/T790M (Homo sapiens, UniProt P00533, L858R/T790M); assay: Inhibition of EGFR L858R/T790M biochemical enzymatic activity (HTRF); details: 1 mM ATP
T3 construct: purchased Carna Bio
T3 sequence (P00533 25-1210 T790M/L858R): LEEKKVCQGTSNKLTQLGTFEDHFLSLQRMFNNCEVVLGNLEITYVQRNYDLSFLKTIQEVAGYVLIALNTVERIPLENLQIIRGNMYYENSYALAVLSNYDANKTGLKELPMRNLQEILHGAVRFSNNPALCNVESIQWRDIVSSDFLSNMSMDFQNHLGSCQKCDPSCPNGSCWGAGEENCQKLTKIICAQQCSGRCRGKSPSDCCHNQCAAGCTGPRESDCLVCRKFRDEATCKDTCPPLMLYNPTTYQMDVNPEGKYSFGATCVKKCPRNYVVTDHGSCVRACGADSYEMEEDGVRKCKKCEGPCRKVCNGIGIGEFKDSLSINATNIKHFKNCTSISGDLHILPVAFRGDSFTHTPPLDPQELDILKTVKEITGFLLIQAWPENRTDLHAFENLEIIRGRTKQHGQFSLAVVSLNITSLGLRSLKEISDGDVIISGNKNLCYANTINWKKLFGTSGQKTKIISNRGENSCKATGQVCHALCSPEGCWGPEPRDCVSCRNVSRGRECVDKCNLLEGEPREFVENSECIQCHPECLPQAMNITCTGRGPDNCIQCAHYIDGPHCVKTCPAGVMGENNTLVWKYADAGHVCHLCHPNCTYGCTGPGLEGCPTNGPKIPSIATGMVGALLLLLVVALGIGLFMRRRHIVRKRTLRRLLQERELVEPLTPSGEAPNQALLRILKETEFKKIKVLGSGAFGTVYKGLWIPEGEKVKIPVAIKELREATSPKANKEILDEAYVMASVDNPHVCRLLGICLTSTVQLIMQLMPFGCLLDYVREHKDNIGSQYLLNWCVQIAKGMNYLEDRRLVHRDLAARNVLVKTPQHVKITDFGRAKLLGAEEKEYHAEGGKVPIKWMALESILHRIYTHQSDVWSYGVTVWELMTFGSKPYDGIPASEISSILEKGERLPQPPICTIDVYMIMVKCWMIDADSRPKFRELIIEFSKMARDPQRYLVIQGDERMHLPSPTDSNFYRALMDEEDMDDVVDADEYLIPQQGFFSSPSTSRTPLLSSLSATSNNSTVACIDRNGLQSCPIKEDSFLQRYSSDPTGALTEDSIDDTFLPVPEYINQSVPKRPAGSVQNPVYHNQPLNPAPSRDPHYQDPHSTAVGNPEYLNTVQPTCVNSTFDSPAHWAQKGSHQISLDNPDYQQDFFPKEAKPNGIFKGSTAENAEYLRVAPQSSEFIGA
In short: as §1

EGFR Exon19Del/T790M = target: T4, EGFR Exon19Del/T790M (Homo sapiens, UniProt P00533, DEL746-750/T790M); assay: Inhibition of EGFR Exon19Del/T790M biochemical enzymatic activity (HTRF); details: 1 mM ATP
T4 construct: purchased Carna Bio
In short: as §1

EGFR[T790M/C797S/L858R] = target: T5, EGFR[T790M/C797S/L858R] (Homo sapiens, UniProt P00533, C797S/L858R/T790M); assay: Inhibition of EGFR[T790M/C797S/L858R] biochemical enzymatic activity (HTRF); details: 1 mM ATP
T5 construct: purchased Carna Bio
T5 sequence (P00533 25-1210 T790M/C797S/L858R): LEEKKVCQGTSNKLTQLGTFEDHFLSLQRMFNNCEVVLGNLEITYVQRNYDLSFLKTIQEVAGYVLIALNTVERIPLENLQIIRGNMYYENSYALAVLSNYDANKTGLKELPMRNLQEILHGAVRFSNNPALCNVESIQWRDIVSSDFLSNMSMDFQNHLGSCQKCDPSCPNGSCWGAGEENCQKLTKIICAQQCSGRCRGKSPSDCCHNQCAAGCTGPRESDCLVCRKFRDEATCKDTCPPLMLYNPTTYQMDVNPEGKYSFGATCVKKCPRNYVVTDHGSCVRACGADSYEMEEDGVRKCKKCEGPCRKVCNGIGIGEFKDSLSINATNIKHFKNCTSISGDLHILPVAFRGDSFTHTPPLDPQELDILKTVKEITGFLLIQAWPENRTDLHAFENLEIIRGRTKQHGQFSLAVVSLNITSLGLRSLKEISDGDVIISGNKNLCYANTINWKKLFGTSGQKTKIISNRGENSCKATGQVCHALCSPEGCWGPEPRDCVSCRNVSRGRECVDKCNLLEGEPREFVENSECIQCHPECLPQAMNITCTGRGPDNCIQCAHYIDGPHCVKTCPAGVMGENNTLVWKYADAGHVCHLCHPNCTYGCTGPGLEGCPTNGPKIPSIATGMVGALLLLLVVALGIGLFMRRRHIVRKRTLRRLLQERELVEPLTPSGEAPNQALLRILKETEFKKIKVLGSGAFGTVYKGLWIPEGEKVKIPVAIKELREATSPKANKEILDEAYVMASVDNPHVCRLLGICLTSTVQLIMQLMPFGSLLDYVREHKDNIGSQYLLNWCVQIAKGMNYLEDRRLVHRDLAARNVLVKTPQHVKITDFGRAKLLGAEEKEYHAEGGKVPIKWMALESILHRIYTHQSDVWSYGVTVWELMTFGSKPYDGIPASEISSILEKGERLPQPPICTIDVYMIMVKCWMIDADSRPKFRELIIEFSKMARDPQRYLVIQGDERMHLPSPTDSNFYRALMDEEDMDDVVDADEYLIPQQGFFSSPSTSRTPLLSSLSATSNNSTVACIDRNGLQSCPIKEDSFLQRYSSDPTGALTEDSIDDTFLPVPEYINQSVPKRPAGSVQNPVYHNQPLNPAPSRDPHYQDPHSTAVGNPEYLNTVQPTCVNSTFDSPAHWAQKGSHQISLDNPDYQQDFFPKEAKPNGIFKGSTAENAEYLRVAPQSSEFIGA
In short: as §1

[1] = target: T6, EGFR[T790M/C797S/d746-750] (Homo sapiens, UniProt P00533, C797S/DEL746-750/T790M); assay: Inhibition of EGFR[T790M/C797S/d746-750] biochemical enzymatic activity (HTRF)
T6 construct: purchased Carna Bio
T6 sequence (P00533 with tags, fused parts or gaps DEL746-750/T790M/C797S limits assumed): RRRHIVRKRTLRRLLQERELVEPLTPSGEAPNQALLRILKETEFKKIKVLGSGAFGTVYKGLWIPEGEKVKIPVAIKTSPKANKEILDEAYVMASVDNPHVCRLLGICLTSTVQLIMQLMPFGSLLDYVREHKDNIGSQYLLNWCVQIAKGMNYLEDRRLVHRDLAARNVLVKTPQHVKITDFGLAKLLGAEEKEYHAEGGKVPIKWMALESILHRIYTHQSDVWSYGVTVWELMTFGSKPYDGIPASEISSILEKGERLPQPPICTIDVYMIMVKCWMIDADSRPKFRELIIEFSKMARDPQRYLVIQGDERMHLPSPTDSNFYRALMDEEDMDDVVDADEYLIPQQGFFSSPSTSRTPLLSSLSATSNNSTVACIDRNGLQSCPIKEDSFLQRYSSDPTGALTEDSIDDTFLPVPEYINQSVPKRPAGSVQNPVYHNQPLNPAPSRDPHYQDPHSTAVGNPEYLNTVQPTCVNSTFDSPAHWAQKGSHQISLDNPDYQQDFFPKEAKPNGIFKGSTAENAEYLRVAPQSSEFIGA
In short: as §1

EGFR (d746-750 C797S) = target: T7, EGFR (d746-750 C797S) (Homo sapiens, UniProt P00533, C797S/DEL746-750); assay: Inhibition of EGFR (d746-750 C797S) biochemical enzymatic activity (HTRF); details: 1 mM ATP
T7 construct: purchased signalchem
T7 sequence (P00533 with tags, fused parts or gaps DEL746-750/C797S limits assumed): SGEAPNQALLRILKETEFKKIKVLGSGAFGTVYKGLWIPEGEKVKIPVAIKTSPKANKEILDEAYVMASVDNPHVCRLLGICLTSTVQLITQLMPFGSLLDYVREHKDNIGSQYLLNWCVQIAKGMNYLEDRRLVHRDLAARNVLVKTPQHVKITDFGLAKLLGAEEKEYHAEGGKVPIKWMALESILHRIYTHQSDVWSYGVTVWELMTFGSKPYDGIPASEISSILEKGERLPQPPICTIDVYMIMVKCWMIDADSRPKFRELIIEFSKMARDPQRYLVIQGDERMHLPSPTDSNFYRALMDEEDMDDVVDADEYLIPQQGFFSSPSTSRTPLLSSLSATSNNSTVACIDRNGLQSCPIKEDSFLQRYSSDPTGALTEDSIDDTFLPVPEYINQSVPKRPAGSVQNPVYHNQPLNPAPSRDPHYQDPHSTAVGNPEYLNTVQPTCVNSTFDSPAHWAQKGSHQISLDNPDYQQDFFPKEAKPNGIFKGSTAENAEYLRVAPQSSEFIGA
In short: as §1

EGFR (C797S L858R) = target: T8, EGFR (C797S L858R) (Homo sapiens, UniProt P00533, C797S/L858R); assay: Inhibition of EGFR (C797S L858R) biochemical enzymatic activity (HTRF); details: 1 mM ATP
T8 construct: purchased signalchem
T8 sequence (P00533 25-1210 C797S/L858R): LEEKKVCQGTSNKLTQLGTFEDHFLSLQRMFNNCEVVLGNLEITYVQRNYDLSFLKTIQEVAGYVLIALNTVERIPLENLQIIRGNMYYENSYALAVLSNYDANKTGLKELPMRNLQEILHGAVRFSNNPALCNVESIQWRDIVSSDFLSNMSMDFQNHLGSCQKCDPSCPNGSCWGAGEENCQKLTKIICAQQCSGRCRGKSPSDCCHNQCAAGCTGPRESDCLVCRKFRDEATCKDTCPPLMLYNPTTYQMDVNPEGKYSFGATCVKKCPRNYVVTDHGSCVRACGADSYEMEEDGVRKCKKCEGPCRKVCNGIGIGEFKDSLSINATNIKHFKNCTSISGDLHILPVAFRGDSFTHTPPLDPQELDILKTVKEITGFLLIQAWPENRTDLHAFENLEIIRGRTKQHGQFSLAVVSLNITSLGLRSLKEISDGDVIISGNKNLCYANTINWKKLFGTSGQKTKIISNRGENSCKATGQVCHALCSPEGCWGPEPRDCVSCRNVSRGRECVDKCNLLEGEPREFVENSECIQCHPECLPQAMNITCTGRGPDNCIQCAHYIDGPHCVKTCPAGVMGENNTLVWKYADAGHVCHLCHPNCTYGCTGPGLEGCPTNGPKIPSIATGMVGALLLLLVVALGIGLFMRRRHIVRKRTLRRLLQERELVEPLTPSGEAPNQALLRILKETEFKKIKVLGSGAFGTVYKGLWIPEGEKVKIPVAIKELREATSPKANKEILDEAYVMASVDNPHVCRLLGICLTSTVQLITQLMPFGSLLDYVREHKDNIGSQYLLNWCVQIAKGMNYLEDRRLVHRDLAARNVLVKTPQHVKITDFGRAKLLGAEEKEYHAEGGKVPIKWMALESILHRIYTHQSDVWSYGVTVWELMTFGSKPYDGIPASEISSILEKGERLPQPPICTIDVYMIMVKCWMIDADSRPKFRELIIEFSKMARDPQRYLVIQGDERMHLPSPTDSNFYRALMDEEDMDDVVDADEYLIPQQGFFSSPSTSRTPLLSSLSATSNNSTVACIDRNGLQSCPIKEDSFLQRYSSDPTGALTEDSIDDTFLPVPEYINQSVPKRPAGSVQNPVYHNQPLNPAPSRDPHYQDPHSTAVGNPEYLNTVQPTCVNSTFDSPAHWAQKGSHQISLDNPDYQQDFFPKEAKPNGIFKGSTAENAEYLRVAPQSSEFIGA
In short: as §1

[2] = test system: Ba/F3 cells expressing EGFR mutations; assay: Cell proliferation assay, Ba/F3 cells expressing EGFR mutations (CellTiter-Glo, 72 hours); format: cell-based; details: Mus musculus, BaF3, 72 h
In short: (§2)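 Ba/F3 cells carrying EGFR mutants (5000/well) or PC-9 cells (500/well) in RPMI1640 were dosed with compound series after overnight attachment and grown 72 h. Viability read by CellTiter-Glo, with day-0 counts subtracted; GI50 from curve fits of % proliferation versus DMSO control.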

PC-9 = assay: Cell proliferation assay, PC-9 cells (CellTiter-Glo, 72 hours); format: cell-based; details: Homo sapiens, PC-9, 72 h, PC9 cells
In short: as §2

A-431 [3] = assay: Cell proliferation assay, A-431 cells (GI50, Table 6); format: cell-based; details: Homo sapiens, A-431, A-431 cells
Method: [Worded in the source for another cell line; this cell line is reported under the same test.] Ba/F3 cells expressing EGFR mutations were seeded in 384-well plates at 5000 cells/well in RPMI1640 medium containing […]. PC-9 at 500 cells/well was seeded into 384-well plates in RPMI1640 medium with 10% FBS. After overnight incubation, the assay plates were dosed with compounds at a series of concentrations. Alongside dosing the assay plates, the day 0 plate was processed using CellTiter-Glo® Luminescent Cell Viability Assay (Promega) to measure the number of viable cells (G0). The assay plates were further incubated for 72 hours and the number of viable cells (G3) was measured. The percentage of proliferation was calculated as: […]=100×(G3 value of sample well−G0 value)/(G3 value of DMSO control−G0 value). The concentration of compound producing 50% proliferation inhibition (GI50) was further calculated in best-fit curves using XLFit software. N/A=not available.

EGFR Exon19Del = target: T9, EGFR Exon19Del (Homo sapiens, UniProt P00533, DEL746-750); assay: Inhibition of EGFR Exon19Del biochemical enzymatic activity (HTRF); details: read-out: IC50 @Del19
T9 construct: purchased Carna Bio
In short: as §1

A-431 [4] = assay: Cell proliferation GI50, A-431 cells (Table 6); format: cell-based; details: Homo sapiens, A-431, A-431 cells
[5] = 1 h, room temperature, read-out: IC50 (nM) @L858R
[6] = EGFR L858R-T790M, 1 h, room temperature, read-out: IC50 (nM) @L858R-T790M
[7] = EGFR Del19-T790M, 1 h, room temperature, read-out: IC50 (nM) @Del19-T790M
[8] = EGFR T790M-C797S-L858R, 1 h, room temperature, read-out: IC50 (nM) @T790M- C797S - L858R
[9] = EGFR T790M-C797S-Del19, 1 mM ATP, 1 h, room temperature, read-out: IC50 (nM) @T790M - C797S - Del19
[10] = EGFR Del19-C797S, 1 h, room temperature, read-out: IC50 (nM) @Del19-C797S
[11] = EGFR L858-C797S, 1 h, room temperature, read-out: IC50 (nM) @L858-C797S
[12] = BaF3 cells, EGFR DEL19 - C797S, read-out: GI50 DEL19 - C797S/BaF3
[13] = BaF3 cells, EGFR DEL19 - T790-C797S, read-out: GI50 DEL19 - T790-C797S/BaF3
[14] = BaF3 cells, EGFR L858R - C797S, read-out: GI50 L858R - C797S/BaF3
[15] = BaF3 cells, EGFR L858R - T790-C797S, read-out: GI50 L858R - T790-C797S/BaF3
[16] = BaF3 cells, EGFR L858R - T790M, read-out: GI50 L858R - T790M/BaF3
[17] = BaF3 cells, EGFR L858R, read-out: GI50 L858R/BaF3
[18] = EGFR DEL19 - T790M, read-out: GI50 DEL19 - T790M

IC50 (EGFR wild type)	IC50 (EGFR L858R; [5])	IC50 (EGFR L858R/T790M; [6])	IC50 (EGFR Exon19Del/T790M; [7])	IC50 (EGFR[T790M/C797S/L858R]; [8])	IC50 [1, 9]	IC50 (EGFR (d746-750 C797S); [10])	IC50 (EGFR (C797S L858R); [11])	GI50 [2, 12]	GI50 [2, 13]	GI50 [2, 14]	GI50 [2, 15]	GI50 [2, 16]	GI50 [2, 17]	GI50 [2, 18]	GI50 (PC-9; read-out: GI50 PC9)	GI50 (A-431 [3])	SMILES	further results
> 5000 nM	233 nM	325 nM	12 nM	50 nM	6.6 nM	9.2 nM	112 nM	7.6 nM	52 nM	61 nM	68 nM	133 nM	20 nM	18 nM	94 nM	3040 nM	CN1CCN(c2cc3c(cc2F)nc2n3C34CCC(CC3)CN(CCOc3c(cnn3C)-c3cc(cn(C)c3=O)C(=O)N2)C4)CC1 [Example A115, 6-fluoro-15,21-dimethyl-5-(4-methylpiperazin-1-yl)-23-oxa-2,9,11,15,20,21,26-heptaazaheptacyclo[26.2.2.1^{1,26}.1^{13,17}.0^{2,10}.0^{3,8}.0^{18,22}]tetratriaconta-3,5,7,9,13,17(34),18(22),19-octaene-12,16-dione]	
								24 nM	10 nM	127 nM	19 nM	38 nM	81 nM	10 nM	103 nM	1680 nM	Cc1cc2cc(n1)-c1cnn(C)c1OCCN1CC3CCC(CC3)(C1)n1c(nc3ccc(N4CCC5(CCN(C)CC5)C4)cc31)NC2=O [Example B31]	IC50 (EGFR L858R; 1 h at room temperature, read-out: IC50 @L858R): 244 nM; IC50 (EGFR L858R/T790M; EGFR L858R/T790M, 1 h at room temperature, read-out: IC50 @L858R-T790M): 20 nM; IC50 (EGFR Exon19Del; EGFR Exon19Del, 1 mM ATP, 1 h at room temperature): 19 nM; IC50 (EGFR Exon19Del/T790M; EGFR Exon19Del/T790M, 1 h at room temperature, read-out: IC50 @Del19-T790M): 11 nM; IC50 (EGFR[T790M/C797S/L858R]; EGFR[T790M/C797S/L858R], 1 h at room temperature, read-out: IC50 @T790M- C797S - L858R): 8.2 nM; IC50 ([1]; EGFR[T790M/C797S/d746-750], 1 mM ATP, 1 h at room temperature, read-out: IC50 @T790M - C797S - Del19): 7.3 nM; IC50 (EGFR (d746-750 C797S); EGFR (d746-750 C797S), 1 h at room temperature, read-out: IC50 @Del19-C797S): 15 nM; IC50 (EGFR (C797S L858R); EGFR (C797S L858R), 1 h at room temperature, read-out: IC50 @L858-C797S): 113 nM
> 5000 nM	2460 nM	2190 nM	27 nM	2470 nM	19 nM	60 nM	1700 nM										C[C@@H]1CCCOc2c(cnn2C)-c2cc(cn(C)c2=O)C(=O)Nc2nc3ccc(Br)cc3n2C1 [Example M3, (11R)-16-Bromo-5,11,26-trimethyl-7-oxa-4,5,13,20,22,26-hexaazapentacyclo[22.3.1.0^{2,6}.0^{13,21}.0^{14,19}]octacosa-1(28),2(6),3,14,16,18,20,24-octaene-23,27-dione]	IC50 (EGFR Exon19Del; EGFR Del19, 1 mM ATP, 1 h, room temperature): 204 nM; GI50 ([2]; BaF3 cells, EGFR DEL19-C797S, CellTiter-Glo, read-out: DEL19-C797S/BaF3 GI50): 89 nM; GI50 ([2]; BaF3 cells, EGFR DEL19-T790-C797S, CellTiter-Glo, read-out: DEL19-T790-C797S/BaF3 GI50): 364 nM; GI50 ([2]; BaF3 cells, EGFR L858R, CellTiter-Glo, read-out: L858R/BaF3 GI50): 257 nM; GI50 ([2]; BaF3 cells, EGFR L858R-C797S, CellTiter-Glo, read-out: L858R-C797S/BaF3 GI50): 344 nM; GI50 ([2]; BaF3 cells, EGFR L858R-T790-C797S, CellTiter-Glo, read-out: L858R-T790-C797S/BaF3 GI50): 159 nM; GI50 ([2]; BaF3 cells, EGFR L858R-T790M, CellTiter-Glo, read-out: L858R-T790M/BaF3 GI50): 982 nM; GI50 ([2]; EGFR DEL19-T790M, CellTiter-Glo, read-out: DEL19-T790M GI50): 300 nM; GI50 (PC-9; CellTiter-Glo, read-out: PC9 GI50): 252 nM; GI50 (A-431 [4]): 1950 nM
